Reference: US9809585B2, “Fluorinated 2-arylbenzo heterocyclic compound with high affinity to Aβ 946; plaques and containing chiral side chain substituent, and preparation method and usage thereof” (BEIJING ZHIBO BIO-MEDICAL TECHNOLOGY CO.,LTD, priority 2014, dated 2017)

Columns and labels:
protein polymer Aβ1-42 = biological target: T1, protein polymer Aβ1-42 (Homo sapiens, UniProt P05067); test: Competitive binding experiment (Ki assay) against [125I]IMPY; settings: read-out: Ki (inhibition constant)
T1 construct: A receptor Aβ1-42 protein is prepared by an established method
T1 sequence (P05067 672-713 limits assumed): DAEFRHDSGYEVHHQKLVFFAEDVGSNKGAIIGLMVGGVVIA
Description: Competitive binding experiment (Ki assay): Put a protein polymer Aβ1-42 of a certain concentration and a radioactive ligand [^125I] […] (5) A glass fiber filter is soaked in a PBS solution containing 0.1% (volume fraction) of polyethyleneimine for 0.5 h. (6) Add 100 μL of a solution of a compound to be tested and of different concentrations, 100 μL of the [^125I] […] Seal the tub with parafilm and swirl it. (7) Shake the tube in a water bath constantly at 37° C. and maintain the incubation for 2 h. (8) Collect the reaction solution with a multi-phase cell collector. Rinse the collected solution with the PBS for three times, 3 mL for each rinse. (9) Count with a γ counter. (10) Process the data.

[1] = In-vivo biodistribution experiment on normal mice; set-up: species or system mice (ICR, male); settings: for Bones radioactivity: tail vein injection
Description: The in-vivo pharmacokinetic properties of mice have been studied with the in-vivo biodistribution experiment, especially the absorption by the primitive brain and the removal from the brain.
Inject 5-10 μCi of a labeled compound (100 μL of a physiological saline solution containing 5% of ethanol) into normal mice (ICR, male, 20-22 g) (n=5) by tail vein injection. The mice are decapitated respectively 2 minutes, 10 minutes, 30 minutes and 60 minutes after the injection. Dissect the mice and take out the relevant organs. Measure the moisture content and the radioactivity amount. The measurement values represent the percentage of the radioactivity amount in an organ (% ID/organ) and the percentage of the radioactivity amount in the organ of one gram (% ID/g).

## CN(C)c1ccc(-c2nc3ccc(OC[C@@H](O)CF)cc3o2)cc1 [Compound 19r]
Protein polymer Aβ1-42
  Ki: 10.8 ± 2.6 nM

## CN(C)c1ccc(-c2nc3ccc(OC[C@H](O)CF)cc3s2)cc1 [Compound 15s]
Protein polymer Aβ1-42
  Ki: 3.7 ± 1.1 nM

## CNc1ccc(-c2nc3cc(OC[C@@H](O)CF)ccc3o2)cn1 [Compound 30r]
Protein polymer Aβ1-42
  Ki: 187 ± 39 nM

## CN(C)c1ccc(-c2nc3ccc(OC[C@@H](O)CF)cc3s2)cc1 [Compound 15r]
Protein polymer Aβ1-42
  Ki: 3.2 ± 1.1 nM

## CNc1ccc(-c2nc3ccc(OC[C@@H](O)CF)cc3s2)cc1 [Compound 14r]
Protein polymer Aβ1-42
  Ki: 27.2 ± 2.9 nM

## CNc1ccc(-c2nc3ccc(OC[C@@H](O)CF)cc3s2)cn1 [Compound 16r]
Protein polymer Aβ1-42
  Ki: 9.9 ± 2.8 nM

## CNc1ccc(-c2nc3cc(OC[C@@H](O)C[18F])ccc3o2)cc1 [Compound [^18F]28r]
[1]; 2 min.
  Bones radioactivity: 1.41 ± 0.29 % ID/g
[1]; 10 min
  Bones radioactivity: 1.79 ± 0.21 % ID/g
[1]; 30 min
  Bones radioactivity: 1.19 ± 0.15 % ID/g
[1]; 1 h
  Bones radioactivity: 3.05 ± 0.86 % ID/g

## CNc1ccc(-c2nc3cc(OC[C@H](O)CF)ccc3o2)cc1 [Compound 28s]
Protein polymer Aβ1-42
  Ki: 67.3 ± 5.5 nM

## CNc1ccc(-c2nc3ccc(OC[C@H](O)CF)cc3o2)cc1 [Compound 18s]
Protein polymer Aβ1-42
  Ki: 103 ± 18.6 nM

## CNc1ccc(-c2nc3cc(OC[C@H](O)CF)ccc3o2)cn1 [Compound 30s]
Protein polymer Aβ1-42
  Ki: 196 ± 49.1 nM

## CNc1ccc(-c2nc3cc(OC[C@H](O)C[18F])ccc3o2)cc1 [Compound [^18F]28s]
[1]; 2 min.
  Bones radioactivity: 1.63 ± 0.44 % ID/g
[1]; 10 min
  Bones radioactivity: 0.77 ± 0.11 % ID/g
[1]; 30 min
  Bones radioactivity: 0.52 ± 0.16 % ID/g
[1]; 1 h
  Bones radioactivity: 0.74 ± 0.13 % ID/g

## CN(C)c1ccc(-c2nc3cc(OC[C@@H](O)CF)ccc3o2)cc1 [Compound 29r]
Protein polymer Aβ1-42
  Ki: 7.6 ± 2.8 nM

## CNc1ccc(-c2nc3cc(OC[C@@H](O)CF)ccc3o2)cc1 [Compound 28r]
Protein polymer Aβ1-42
  Ki: 85.3 ± 5.2 nM

## CNc1ccc(-c2nc3ccc(OC[C@H](O)CF)cc3s2)cn1 [Compound 16s]
Protein polymer Aβ1-42
  Ki: 45.4 ± 11.8 nM

## CN(C)c1ccc(-c2nc3ccc(OC[C@H](O)C[18F])cc3s2)cc1 [Compound [^18F]15s]
[1]; 2 min.
  Bones radioactivity: 2.31 ± 0.71 % ID/g
[1]; 10 min
  Bones radioactivity: 1.82 ± 0.39 % ID/g
[1]; 30 min
  Bones radioactivity: 1.45 ± 0.48 % ID/g
[1]; 1 h
  Bones radioactivity: 1.08 ± 0.38 % ID/g

## CN(C)c1ccc(-c2nc3ccc(OC[C@@H](O)CF)cc3s2)cn1 [Compound 17r]
Protein polymer Aβ1-42
  Ki: 11.1 ± 5.4 nM

## CN(C)c1ccc(-c2nc3cc(OC[C@@H](O)C[18F])ccc3o2)cc1 [Compound [^18F]29r]
[1]; 2 min.
  Bones radioactivity: 2.12 ± 0.60 % ID/g
[1]; 10 min
  Bones radioactivity: 1.24 ± 0.40 % ID/g
[1]; 30 min
  Bones radioactivity: 1.36 ± 0.41 % ID/g
[1]; 1 h
  Bones radioactivity: 1.93 ± 0.77 % ID/g

## CN(C)c1ccc(-c2nc3cc(OC[C@H](O)C[18F])ccc3o2)cc1 [Compound [^18F]29s]
[1]
  removal from the brain: quickly removed from the brain of normal mice
[1]; brain
  ratio of the absorption in 2 minutes to that in 60 minutes (brain): 27.8
[1]; 2 min.
  Bones radioactivity: 2.06 ± 0.45 % ID/g
[1]; 10 min
  Bones radioactivity: 0.99 ± 0.35 % ID/g
[1]; 30 min
  Bones radioactivity: 0.85 ± 0.30 % ID/g
[1]; 1 h
  Bones radioactivity: 1.13 ± 0.28 % ID/g

## CNc1ccc(-c2nc3ccc(OC[C@H](O)CF)cc3s2)cc1 [Compound 14s]
Protein polymer Aβ1-42
  Ki: 26 ± 6.5 nM

## CNc1ccc(-c2nc3ccc(OC[C@@H](O)CF)cc3o2)cc1 [Compound 18r]
Protein polymer Aβ1-42
  Ki: 129 ± 40.2 nM

## CN(C)c1ccc(-c2nc3ccc(OC[C@H](O)CF)cc3s2)cn1 [Compound 17s]
Protein polymer Aβ1-42
  Ki: 27.2 ± 7.1 nM

## CN(C)c1ccc(-c2nc3ccc(OC[C@H](O)CF)cc3o2)cc1 [Compound 19s]
Protein polymer Aβ1-42
  Ki: 11 ± 1.5 nM

## CN(C)c1ccc(-c2nc3cc(OC[C@H](O)CF)ccc3o2)cn1 [Compound 31s]
Protein polymer Aβ1-42
  Ki: 57.4 ± 7.6 nM

## CN(C)c1ccc(-c2nc3cc(OC[C@H](O)CF)ccc3o2)cc1 [Compound 29s]
Protein polymer Aβ1-42
  Ki: 15.5 ± 3.2 nM

## CN(C)c1ccc(-c2nc3ccc(OC[C@@H](O)C[18F])cc3s2)cc1 [Compound [^18F]15r]
[1]; 2 min.
  Bones radioactivity: 2.43 ± 0.53 % ID/g
[1]; 10 min
  Bones radioactivity: 2.31 ± 0.26 % ID/g
[1]; 30 min
  Bones radioactivity: 1.42 ± 0.27 % ID/g
[1]; 1 h
  Bones radioactivity: 1.12 ± 0.59 % ID/g

## CN(C)c1ccc(-c2nc3cc(OC[C@@H](O)CF)ccc3o2)cn1 [Compound 31r]
Protein polymer Aβ1-42
  Ki: 27.2 ± 6.3 nM
